# Test results: the OligoGym collection
# Where “and” joins values, the source holds several entries; their conditions need not be identical. Equal values may be shown once. After the bases stand the sugars from the 5' end (letter, count) and the backbone: PS all phosphorothioate, else s phosphorothioate and o phosphodiester by linkage. Methylation of C is not given here. k = constrained ethyl (cEt); d = 2'-deoxy (DNA)
# Molecular target: MALAT1
# Conditions: ASO, A431, 0.005 µM
row,Sequence,target mRNA inhibition
1,"TTTTTACCAACCACTC (sugars k3 d10 k3, PS)",26%
2,"GATCATAATCTCCCAC (sugars k3 d10 k3, PS)",41%
3,"CCACTCTTGGAAAACG (sugars k3 d10 k3, PS)",23%
4,"CTCACGGATTTTTACC (sugars k3 d10 k3, PS)",7%
5,"CTTAAGAGGGCAGGAG (sugars k3 d10 k3, PS)",-4%
6,"CAGGGCTTTACTTTCC (sugars k3 d10 k3, PS)",2%
7,"CCCTTCTATTGGTATT (sugars k3 d10 k3, PS)",7%
8,"TACCATATCCAAACAA (sugars k3 d10 k3, PS)",11%
9,"ACTACCATATCCAAAC (sugars k3 d10 k3, PS)",27%
10,"TCATAATCTCCCACCT (sugars k3 d10 k3, PS)",10%
11,"CCCCATTATATTAGAA (sugars k3 d10 k3, PS)",-6%
12,"GAAACCTGGGCTCCCG (sugars k3 d10 k3, PS)",13%
13,"CGGCCCCCCAGTTGCC (sugars k3 d10 k3, PS)",17%
14,"GTTACCATAAGTAAGT (sugars k3 d10 k3, PS)",2%
15,"GAGGGAGTTGAGGCAA (sugars k3 d10 k3, PS)",24%
16,"GCCATCTACTATTTCT (sugars k3 d10 k3, PS)",38%
17,"GATTGTAAGCATTTAA (sugars k3 d10 k3, PS)",54% and 67%
18,"CAAGATTGCCCCAACA (sugars k3 d10 k3, PS)",12%
19,"ACTGCATTTACTTGCC (sugars k3 d10 k3, PS)",8%
20,"ACTGAATCCACTTCTG (sugars k3 d10 k3, PS)",35%
21,"TGACACTTTCCTTGCC (sugars k3 d10 k3, PS)",66% and 46%
22,"TCTGTGTTATGCCTGG (sugars k3 d10 k3, PS)",17%
23,"GCCTACCACTCTAAGA (sugars k3 d10 k3, PS)",29%

row,Sequence,target mRNA inhibition
1,"TAGATTCACTGAATCC (sugars k3 d10 k3, PS)",-4%
2,"AGTTTATCTGCAATCA (sugars k3 d10 k3, PS)",46% and 59%
3,"ATATAAGGTCAATAGT (sugars k3 d10 k3, PS)",16%
4,"CCCCACGCCAACACAG (sugars k3 d10 k3, PS)",10%
5,"TTGCCTACCACTCTAA (sugars k3 d10 k3, PS)",0%
6,"TGTATTAATCTCTATC (sugars k3 d10 k3, PS)",41%
7,"CAGAAAAAGCTTGTTC (sugars k3 d10 k3, PS)",37%
8,"AAATTTCCTTAGTTGG (sugars k3 d10 k3, PS)",54%
9,"TGATCTGCGGCCCCCC (sugars k3 d10 k3, PS)",-50%
10,"ATGCTACTCTTCTAAG (sugars k3 d10 k3, PS)",40%
11,"AGTGTAAAACATTGCC (sugars k3 d10 k3, PS)",7%
12,"AGCTACCATCAGAAGA (sugars k3 d10 k3, PS)",34%
13,"CCAAGATTGCCCCAAC (sugars k3 d10 k3, PS)",14%
14,"ATCCACTTGATCCCAA (sugars k3 d10 k3, PS)",16%
15,"GAAACTCCCCCATTAT (sugars k3 d10 k3, PS)",6%
16,"GCCTTTGTGAGGGAGG (sugars k3 d10 k3, PS)",-23%
17,"GCCGTTGGCTGCCAGT (sugars k3 d10 k3, PS)",-8%
18,"TCAACCTCCGTCATGT (sugars k3 d10 k3, PS)",32%
19,"AAGAACTAGCACCTGC (sugars k3 d10 k3, PS)",13%
20,"TGCGACTTGCTCCCAA (sugars k3 d10 k3, PS)",-13%
21,"AGAAGTCTCGGGCTGC (sugars k3 d10 k3, PS)",8%
22,"GAGTATGCTGATAAAC (sugars k3 d10 k3, PS)",37%
23,"ATTAATGCTAGTCCTC (sugars k3 d10 k3, PS)",36%

row,Sequence,target mRNA inhibition
1,"TATAAGGACAGCTAAG (sugars k3 d10 k3, PS)",21%
2,"CATTCAAGCTGAACTA (sugars k3 d10 k3, PS)",39%
3,"TCCCGTACTTCTGTCT (sugars k3 d10 k3, PS)",41%
4,"ACCTACAACACCCGGA (sugars k3 d10 k3, PS)",25%
5,"CTTCATGACCCTACTG (sugars k3 d10 k3, PS)",36%
6,"TTCCCATAATTGTAGT (sugars k3 d10 k3, PS)",18%
7,"TACAGAAAGAGTCCTG (sugars k3 d10 k3, PS)",17%
8,"TCCTCTACGCACAACG (sugars k3 d10 k3, PS)",11%
9,"GGAAGATTAAAGTGTG (sugars k3 d10 k3, PS)",21%
10,"AGTAGTTGTATTAATC (sugars k3 d10 k3, PS)",64% and 41%
11,"CTCCCCCCCGCCTCAG (sugars k3 d10 k3, PS)",12%
12,"GTACATTTTGCCCTTA (sugars k3 d10 k3, PS)",64% and 45%
13,"CCACCCTCTAAGAGAC (sugars k3 d10 k3, PS)",-17%
14,"CTTCGGTGCCTTTAGT (sugars k3 d10 k3, PS)",23%
15,"TTTTAAAAGATCGCCT (sugars k3 d10 k3, PS)",33%
16,"TCTAACCCAGTTTGTC (sugars k3 d10 k3, PS)",31%
17,"GTCACTGGATAAGTAT (sugars k3 d10 k3, PS)",48%
18,"ACCCCAACTAAACATA (sugars k3 d10 k3, PS)",26%
19,"GCAGTAGGGCTTCTCA (sugars k3 d10 k3, PS)",-8%
20,"AGGAACAAGTCCTACA (sugars k3 d10 k3, PS)",36%
21,"TTCCATTACGCAACTG (sugars k3 d10 k3, PS)",-21%
22,"TCCCCCATTATATTAG (sugars k3 d10 k3, PS)",14%
23,"TTCACCAAATCGCACT (sugars k3 d10 k3, PS)",29%

row,Sequence,target mRNA inhibition
1,"AATCCCTTTACACCTC (sugars k3 d10 k3, PS)",26%
2,"CCCCCCACGGCCCGCA (sugars k3 d10 k3, PS)",26%
3,"AGTTGGTAATTACTCT (sugars k3 d10 k3, PS)",40%
4,"AAAAGATCGCCTTCAA (sugars k3 d10 k3, PS)",34%
5,"CGCCGCCTCTTAAAGC (sugars k3 d10 k3, PS)",13%
6,"TACAAGTTACATGTTC (sugars k3 d10 k3, PS)",20%
7,"CTGAAAGAACTAGTGG (sugars k3 d10 k3, PS)",20%
8,"CTACTCTTCTAAGTCT (sugars k3 d10 k3, PS)",49%
9,"CTGAAGAGCATTGGAG (sugars k3 d10 k3, PS)",50%
10,"AGCACGGGCTGTCTGC (sugars k3 d10 k3, PS)",7%
11,"GTGAATTCAACTGGAA (sugars k3 d10 k3, PS)",50%
12,"CCTCAATCCACTTGAT (sugars k3 d10 k3, PS)",-2%
13,"GCTTACAGATTTGCTG (sugars k3 d10 k3, PS)",8%
14,"TGAGGCAAACGAAACA (sugars k3 d10 k3, PS)",16%
15,"CAAAAGCCCTCTCAGC (sugars k3 d10 k3, PS)",-14%
16,"CTTCTATTGGTATTAA (sugars k3 d10 k3, PS)",18%
17,"ATATTTAACTTCCCCC (sugars k3 d10 k3, PS)",30%
18,"GCACGGAAATTTTTCT (sugars k3 d10 k3, PS)",-3%
19,"AATTCGATCACCTTCC (sugars k3 d10 k3, PS)",16%
20,"CCTCAGTTACACATCC (sugars k3 d10 k3, PS)",49%
21,"CTATACTTCTCCAATA (sugars k3 d10 k3, PS)",-13%
22,"TCTTAGTAACCTATTG (sugars k3 d10 k3, PS)",19%
23,"AAACGAAACATTGGCA (sugars k3 d10 k3, PS)",46%

row,Sequence,target mRNA inhibition
1,"TTAGGATTCTAGACAG (sugars k3 d10 k3, PS)",43%
2,"CTTGAAGACTGTTGCT (sugars k3 d10 k3, PS)",42%
3,"CAATCAAGTCAAGCTC (sugars k3 d10 k3, PS)",3%
4,"AAAGGTTACCATAAGT (sugars k3 d10 k3, PS)",5%
5,"CTTCAAGCACCGCTTG (sugars k3 d10 k3, PS)",21% and 28%
6,"GGTAATTACTCTTGAT (sugars k3 d10 k3, PS)",50%
7,"TATAGTTTACCACCTT (sugars k3 d10 k3, PS)",14%
8,"CACCCGGAAATCGGCC (sugars k3 d10 k3, PS)",-1%
9,"CTGAAATCCCCTAGGG (sugars k3 d10 k3, PS)",30%
10,"GTGGCCTTTTAAAGTA (sugars k3 d10 k3, PS)",15%
11,"TATGGATCATGCCCAC (sugars k3 d10 k3, PS)",27%
12,"TACTGCATTTACTTGC (sugars k3 d10 k3, PS)",20%
13,"TCCCCCAACTGCTTGC (sugars k3 d10 k3, PS)",11%
14,"TGCCAACAGCACAGCG (sugars k3 d10 k3, PS)",1%
15,"TGCAATACTGCAGATG (sugars k3 d10 k3, PS)",20%
16,"TCTAAATTGGTTCTGG (sugars k3 d10 k3, PS)",55% and 64%
17,"TCACTACTCCAAGCAT (sugars k3 d10 k3, PS)",21%
18,"ACGCTAAGCAATATCT (sugars k3 d10 k3, PS)",37%
19,"CAACAAGTAAGCCCCA (sugars k3 d10 k3, PS)",0%
20,"CGTCCCCATATAAATC (sugars k3 d10 k3, PS)",1%
21,"CCTACAACACCCGGAA (sugars k3 d10 k3, PS)",0%
22,"TTCTAATAGCAGCGGG (sugars k3 d10 k3, PS)",59% and 40%
